Measurements: patent US12569434B2, “Formulations of Nebivolol” (EXTROVIS AG, priority 2020, dated 2026)

How the values were obtained:
[1] = assay type: physicochemical; details: solution in propylene glycol, pH 3 to 7, 50° C. for 1M and 40° C./75% RH for 6M
Description: To evaluate the stability of Nebivolol in suitable liquid vehicle or solubilizer at different pH conditions, pH stability study was performed using 0.1N HCL/0.1N NaOH for pH adjustment. Propylene glycol was used as solubilizer to dissolve Nebivolol to prepare the stock solution. The stock solution was added to water and adjusted the pH with 0.1N HCL/0.1N NaOH at different pH ranging from 3 to 7.

[2] = assay type: physicochemical; details: open air exposure, 50° C. for 2 Weeks and 40° C./7.5% RH for 1 month
Description: Drug-Excipient compatibility study was carried with excipients such as mannitol, maltitol, dextrates, povidone, methyl paraben, propyl paraben, citric acid, sodium citrate, sodium saccharin. The study was carried out in clear glass vials with open air exposure at stress conditions 50° C. for 2 Weeks and 40° C./[…] (relative humidity) for 1 month.

Structure (SMILES): Cl.OC(CNCC(O)C1CCc2cc(F)ccc2O1)C1CCc2cc(F)ccc2O1 (racemic) [Nebivolol HCl, (1RS,1′RS)-1,1′-[(2RS,2′SR)-bis(6-fluoro-3,4-dihydro-2H-1-benzopyran-2-yl)]-2,2′-iminodiethanol hydrochloride]
- Stability of Nebivolol [1]: stable
- desfluoro Nebivolol impurity [1]: within the specification limits
- Stability of Nebivolol with excipients [2]: stable
- desfluoro impurity [2]: within the specification limits
